# Where “and” joins values, the source holds several entries; their conditions need not be identical. Equal values may be shown once. Read-outs that look alike come from different tables or passages of the source. Peptide text beside a SMILES is read from it.
# B1: hSgol2 array peptide KVNKMTSKSKKRKTS (peptide)
# peptide: KVNKMTSKSKKRKTS
# notes: human Shugoshin-like 2 (hSgol2), 15-mer of the overlapping peptide array; source: laser-printed on the PEPperCHIP peptide microarray (PEPperPRINT)
# B2: hSgol1^291–312 peptide (peptide)
# peptide: KREEKRKANRRKSKRMSKYKEN
# notes: human Shugoshin-like 1 (hSgol1), residues 291-312, with the KEN motif; also called hSgol1 peptide; source: synthetic peptide (Genscript)
# B3: borealin^6–20 peptide (peptide)
# peptide: GSSRVAKTNSLRRRK
# notes: borealin, human, residues 6-20; source: synthetic peptide (Genscript) for MST; laser-printed on the PEPperCHIP peptide microarray (PEPperPRINT)
# B4: hSgol2 array peptide ECQVKKVNKMTSKSK (peptide)
# peptide: ECQVKKVNKMTSKSK
# notes: as for B1
# B5: hSgol1 array peptide RKANRRKSKRMSKYK (peptide)
# peptide: RKANRRKSKRMSKYK
# notes: human Shugoshin-like 1 (hSgol1), 15-mer of the overlapping peptide array; source: laser-printed on the PEPperCHIP peptide microarray (PEPperPRINT)
# B6: hSgol1 array peptide KREEKRKANRRKSKR (peptide)
# peptide: KREEKRKANRRKSKR
# notes: as for B5
# B7: hSgol2^1066–1085 peptide (peptide)
# peptide: ECQVKKVNKMTSKSKKRKTS
# notes: human Shugoshin-like 2 (hSgol2), residues 1066-1085; also called hSgol2 peptide; source: synthetic peptide (Genscript)
# Assays:
# human survivin [1] = molecular target: T1, human survivin (Homo sapiens, UniProt O15392); test: MicroScale Thermophoresis (MST) with chemically labelled survivin; type: binding; conditions: Buffer B (50 mM Tris pH 7.4, 150 mM NaCl, 10 mM MgCl2, 0.05% Tween-20, 1 mM DTT), 24 °C, three independent dilution series, read-out: KD, Robust (Bayesian)
# T1 construct: His8 (pHIS8 vector); made in house; host or cells: E. coli BL21(DE3) star
# Protocol: Survivin was expressed in E.coli BL21(DE3) star (Merck) cells using the pHIS8 expression vector used by Verdecia et al.[18] The expression was induced at OD600 0.6–0.8 in Luria Bertani (LB) media by 0.5 mM IPTG and incubated during 3–4 h at 30 °C. The cells were harvested at 6000 g during 20 min and resuspended in lysis buffer containing 50 mM Tris pH 8, 500 mM NaCl, 10 mM imidazole, 0.25 mM Pefabloc®SC (Sigma), […] DNAse (Sigma) and 0.2 mg/ml Lysozyme (Sigma). The cells were lysed with a high pressure homogenizer, using 3 cycles of […]. Survivin was purified by Ni^2+ chelation chromatography using 5 ml HisTrap FF column (GE Healthcare). Overnight dialysis in 50 mM Tris pH8, 150 mM NaCl and 1 mM DTT buffer and a gel filtration purification using a Superdex 75 100/300GL column (GE Healthcare) were done before chemical labelling. […] The borealin^6–20, hSgol1^291–312 and hSgol2^1066–1085 peptides were chemically synthetized (Genscript).
# MicroScale Thermophoresis experiments were performed according to the NanoTemper technologies protocol in a Monolith NT.115 (green/blue) instrument (NanoTemper Technologies). […]
# Survivin was labelled with the MO-L005 Monolith™ Protein Labeling Kit GREEN-MALEIMIDE (Cysteine Reactive) from NanoTemper Technologies. Peptides derived from hSgol1^291–312 ([…]) and hSgol2^1066–1085 ([…]) were analyzed in Buffer B (50 mM Tris pH 7.4, 150 mM NaCl, 10 mM MgCl2, 0.05% Tween-20 and 1 mM DTT). All samples were measured after an incubation of 5 min (according to “User Starting Guide Monolith® NT.115”).
# The experiments were performed using 20% and 40% MST power and between 20–80% LED power at 24 °C. The MST traces were recorded using the standard parameters: 5 s MST power off, 30 s MST power on and 5 s MST power off. The reported measurement values are the combination of two effects: the fast, local environment dependent responses of the fluorophore to the temperature jump and the slower diffusive thermophoresis fluorescence changes. […]
# human survivin [2] = molecular target: T1, human survivin; test: PEPperCHIP peptide microarray, survivin binding to laser printed overlapping peptides; conditions: survivin 1, 10 and 100 μg/ml; secondary 6X His Tag Antibody DyLight680 antibody; fluorescence, LI-COR Odyssey; duplicate spots
# Protocol: We tested the Bayesian inference method on potential binding interactions of survivin identified by PEPperCHIP Peptide Microarray (PEPperPRINT, GmbH, Heidelberg, Germany). These microarrays consisted of overlapping peptides originating from candidate proteins from the human proteome including hSgol1, hSgol2 and the N-terminal region of borealin (1–93). The peptides were generated by peptide laser printing[25] (Fig. 2). […] The spots are consistently visible at 1, 10 and 100 μg/ml survivin concentrations in the assay buffer (Fig. 2). Quantitative analysis of the fluorescent intensities of the specific and control antibodies for borealin, hSgo1l and hSgol2 are shown in Supplementary Fig. S1, S2 and S3, respectively.
# Pre-staining of one of the PEPperCHIP® Peptide Microarrays was done with the secondary 6X His Tag Antibody DyLight680 antibody at a dilution of 1:1000 and with monoclonal anti-HA (12CA5)-DyLight800 control antibody at a dilution of 1:1000 to investigate background interactions with the protein-derived peptides that could interfere with the main assays. Subsequent incubation of other peptide microarray copies with survivin at concentrations of 1 µg/ml, 10 µg/ml and 100 µg/ml in incubation buffer was followed by staining with the secondary 6X His Tag Antibody DyLight680 (Rockland Immunochemicals) antibody and the monoclonal anti-HA (12CA5)-DyLight800 control antibody (Rockland Immunochemicals) as well as by read-out at scanning intensities of 7/7 (red/green). HA and His tag control peptides were simultaneously stained as internal quality control to confirm the assay quality and to facilitate grid alignment for data quantification. Read-out was performed with a LI-COR Odyssey Imaging System, while quantification of spot intensities and peptide annotation were done with PepSlide® Analyzer.
# human survivin [3] = molecular target: T2, human survivin (human, UniProt O15392 1-142, GREEN-MALEIMIDE (cysteine reactive) fluorescent label, in the MST experiments only); test: peptide or protein array; PEPperCHIP microarray of overlapping printed peptides; incubated with survivin at 1, 10 and 100 µg/ml in incubation buffer; detected with 6X His Tag Antibody DyLight680; conditions: both partners purified
# T2 construct: survivin, human, 16 kDa; The His tag is detected on the array by a 6X His Tag antibody; for the MST no cleavage of the tag is told; On the array the protein was unlabelled, in the MST labelled on cysteine; source: E. coli BL21(DE3) star, purified (Ni2+ chelation chromatography, gel filtration)
# human survivin [4] = molecular target: T2, human survivin; test: MST; labelled survivin held constant, serial dilution of the peptide; Buffer B (50 mM Tris pH 7.4, 150 mM NaCl, 10 mM MgCl2, 0.05% Tween-20, 1 mM DTT); 5 min incubation; 24 °C; T-jump + thermophoresis; three dilution series; conditions: both partners purified
# human survivin [5] = molecular target: T2, human survivin; test: MST; labelled survivin held constant, serial dilution of the peptide; Buffer A (50 mM Tris pH 8.0, 150 mM NaCl, 1 mM DTT, 0.05% Tween); 5 min incubation; 24 °C; T-jump + thermophoresis; three dilution series; conditions: both partners purified
# human survivin [6] = molecular target: T2, human survivin; test: MST; labelled survivin held constant, serial dilution of the peptide; Buffer B (50 mM Tris pH 7.4, 150 mM NaCl, 10 mM MgCl2, 0.05% Tween-20, 1 mM DTT); 5 min incubation; 24 °C; T-jump + thermophoresis; three dilution series; conditions: both partners purified; remark: listed apart in the source
# [7] = 5 min incubation, median and HDI 95% interval of sampled posterior
# T2 sequence (O15392 whole entry): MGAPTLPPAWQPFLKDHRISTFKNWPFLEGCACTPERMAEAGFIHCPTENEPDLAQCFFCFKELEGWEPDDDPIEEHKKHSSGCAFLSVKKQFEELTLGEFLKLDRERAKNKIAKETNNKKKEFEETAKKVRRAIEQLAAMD
# T1 sequence (O15392 whole entry): as above
molecule,measurement,setting,value
CSCC[C@H](NC(=O)[C@H](CCCNC(=N)N)NC(=O)[C@H](CCCCN)NC(=O)[C@H](CO)NC(=O)[C@H](CCCCN)NC(=O)[C@H](CCCNC(=N)N)NC(=O)[C@H](CCCNC(=N)N)NC(=O)[C@H](CC(N)=O)NC(=O)[C@H](C)NC(=O)[C@H](CCCCN)NC(=O)[C@H](CCCNC(=N)N)NC(=O)[C@H](CCCCN)NC(=O)[C@H](CCC(=O)O)NC(=O)[C@H](CCC(=O)O)NC(=O)[C@H](CCCNC(=N)N)NC(=O)[C@@H](N)CCCCN)C(=O)N[C@@H](CO)C(=O)N[C@@H](CCCCN)C(=O)N[C@@H](Cc1ccc(O)cc1)C(=O)N[C@@H](CCCCN)C(=O)N[C@@H](CCC(=O)O)C(=O)N[C@@H](CC(N)=O)C(=O)O [hSgol1^291–312] (H-KREEKRKANRRKSKRMSKYKEN-OH),Kd,human survivin [1]; [7],80.7 µM
same,Kd,"human survivin [1]; 120 min incubation, median and HDI 95% interval, incubation time affected adversely the sample quality",53.6 µM
CSCC[C@H](NC(=O)[C@H](CCCCN)NC(=O)[C@H](CC(N)=O)NC(=O)[C@@H](NC(=O)[C@H](CCCCN)NC(=O)[C@H](CCCCN)NC(=O)[C@@H](NC(=O)[C@H](CCC(N)=O)NC(=O)[C@H](CS)NC(=O)[C@@H](N)CCC(=O)O)C(C)C)C(C)C)C(=O)N[C@H](C(=O)N[C@@H](CO)C(=O)N[C@@H](CCCCN)C(=O)N[C@@H](CO)C(=O)N[C@@H](CCCCN)C(=O)N[C@@H](CCCCN)C(=O)N[C@@H](CCCNC(=N)N)C(=O)N[C@@H](CCCCN)C(=O)N[C@H](C(=O)N[C@@H](CO)C(=O)O)[C@@H](C)O)[C@@H](C)O [hSgol2^1066–1085] (H-ECQVKKVNKMTSKSKKRKTS-OH),Kd,human survivin [1]; [7],1.6 µM
"DTQERKREEKRKANR [adjacent hSgol1 peptide, laser printed on microarray]",microarray response to survivin (spot signal),human survivin [2],to some extent
"ECQVKKVNKMTSKSK [hSgol2 peptide, laser printed on microarray]",microarray response to survivin (spot signal),human survivin [2],main responses with the clearest spot morphologies
EVSKIVTVSTGIKKK [other basic peptide on the microarray],microarray response to survivin (spot signal),human survivin [2],did not react with survivin in a similar manner
HQSSFLLSASKKKRI [other basic peptide on the microarray],microarray response to survivin (spot signal),human survivin [2],did not react with survivin in a similar manner
"KREEKRKANRRKSKR [basic hSgol1 peptide, laser printed on microarray]",microarray response to survivin (spot signal),human survivin [2],main responses with the clearest spot morphologies
KTFRKVKDSSSEKKR [other basic peptide on the microarray],microarray response to survivin (spot signal),human survivin [2],did not react with survivin in a similar manner
"KVNKMTSKSKKRKTS [hSgol2 peptide, laser printed on microarray]",microarray response to survivin (spot signal),human survivin [2],main responses with the clearest spot morphologies
"RKANRRKSKRMSKYK [basic hSgol1 peptide, laser printed on microarray]",microarray response to survivin (spot signal),human survivin [2],main responses with the clearest spot morphologies
SPTDPKACNWKKYKF [other basic peptide on the microarray],microarray response to survivin (spot signal),human survivin [2],did not react with survivin in a similar manner
B1,binding result,human survivin [3],binds
B2,Kd,human survivin [4],80.9 µM
B3,Kd,human survivin [5],10.8 µM and 10.2 µM and 10 µM
B4,binding result,human survivin [3],binds
B5,binding result,human survivin [3],binds
B6,binding result,human survivin [3],binds
B7,Kd,human survivin [6],1.6 µM and 1.4 µM

# From PMC5711809, “Bayesian Analysis of MicroScale Thermophoresis Data to Quantify Affinity of Protein:Protein Interactions with Human Survivin” (Scientific Reports, 2017)
